# Assay results published in US20200338045A1, “ISOINDOLINE COMPOSITIONS AND METHODS FOR TREATING NEURODEGENERATIVE DISEASE” (priority 2017, published 2020).
# Assays:
# [1] = system: plasma proteins; experiment: LC/MSMS protein expression in plasma (COG0102); assay type: in vivo, human
# Experimental: Plasma and CSF protein expression were measured by LC/MSMS in samples drawn prior to dosing (Day 0) and at end of dosing (Day 28) and were compared within each patient and between dosing groups.
# (§1) This trial (ClinicalTrials.gov NCT02907567) was a randomized, double-blind, placebo-controlled clinical trial in mild to moderate Alzheimer's patients (MMSE 18-26) (See FIG. 1 for clinical trial design). The trial was conducted at six sites in Australia. Patients were randomized into placebo (n=5) or CT1812-treated groups: 90 mg (n=4), 280 mg (n=5) or 560 mg (n=5) and treated once daily for 28 days. Clinical chemistry was done at Sydpath (Sydney, AU). Pharmacokinetics were done at CPR Pharma Services (Adelaide, AU). Cerebrospinal fluid samples were taken at screening and day 21-28 of treatment and aliquoted. Plasma samples were taken at screening or Day 1 (one sample) and day 14-28, then spun down to separate plasma and aliquoted. One set of CSF samples was analyzed for Alzheimer's disease biomarkers; protein measurements (Aβ42, A1340, total tau, tau phosphorylated at threonine 181 (phosphorylated tau), NFL and neurogranin) were performed using commercially available ELISA assays from Fujirebio according to the manufacturer's instructions (INNOTEST β-AMYLOID(1-42), INNOTEST β-AMYLOID(1-40), INNOTEST hTau Ag, INNOTEST PHOSPHO-TAU(181P), Uman Diagnostics NFL assay). Neurogranin was measured with a sandwich ELISA method using antibodies Ng2 and Ng22 developed at the University of Gotteborg (Kvartsberg et al. 2015). Identical aliquots of CSF, and plasma were analyzed for protein expression changes via LC/MSMS at Caprion (see below).
# Matched screening and day 28 plasma and CSF samples were analyzed by LC/MSMS at Caprion Biosciences Inc. Plasma was depleted of high and medium abundance proteins using a commercial immunoaffinity column, IgY14-Supermix (Sigma). CSF was depleted of only 14 high abundance proteins using MARS-14 (Agilent). All samples were digested with trypsin and plasma samples were fractionated by strong cation exchange chromatography (3 fractions). Both CSF and plasma samples were analyzed using a NanoAcquity UPLC coupled to a Q Exactive MS. […] The 12 most intense peaks per survey scan with charge states 2-8 fragmented and scanned with a mass range from 200 to 2000 m/z at a resolution of 17,500. Raw spectrometer data files for each LC-MS run were aligned independently using Elucidator software (Rosetta Biosoftware). The MS/MS spectra were matched to corresponding peptide sequences found in the Uniprot Human protein database (January 2017) using Mascot software, allowing for up to 2 missed cleavages, a peptide tolerance of 20 ppm, and an MS/MS tolerance of 0.05 Da. Outlier detection was performed by determining the average log-intensity of all isotope groups (IG) over injection order for all samples. Samples with an average value greater than 2 standard deviations from the mean were flagged for investigation. Following data transformation and normalization, expression analysis of the identified isotope groups was performed and the statistical significance of each comparison was assessed with a parametric, linear mixed model (LMM) and a non-parametric Wilcoxon ranked test (ranked p-values). Expression analysis was also performed at the peptide and protein levels, which used the same methodology as above, but applied to peptide/protein intensities, derived by rolling-up the corresponding isotope group intensities. Isotope groups not detected in at least half of the samples in either of the two groups being compared were not used for the roll-up.
# [2] = system: neurogranin, Aβ, tau, NFL in CSF; experiment: CSF Alzheimer's disease biomarkers by ELISA (COG0102); assay type: in vivo, human; conditions: for neurogranin reduced: 28 days
# Experimental: as §1
# [3] = plasma, treated group vs baseline
smiles,measurement,setting,value
CC(C)(C)Oc1cc(CCC(C)(C)N2Cc3ccc(S(C)(=O)=O)cc3C2)ccc1O [CT1812],"Sema3F, % change treated vs placebo",[1]; CSF & Plasma,47%
same,"Sema3F, With CT1812","[1]; CSF & Plasma, direction of change",significantly increased and ↑*
same,"Sema3F, % change baseline treated","[1]; CSF & Plasma, treated group vs baseline",10%
same,"ACOX1, % change treated vs placebo",[1]; plasma,42%
same,"ANXA1, % change treated vs placebo",[1]; plasma,−61%
same,"ANXA2, % change treated vs placebo",[1]; plasma,−54%
same,"AZGP1, % change treated vs placebo",[1]; plasma,28%
same,"B4GALT1, % change treated vs placebo",[1]; plasma,36%
same,"C4BPA, % change treated vs placebo",[1]; plasma,44%
same,"CFH, % change treated vs placebo",[1]; plasma,20%
same,"Cathepsin S, % change treated vs placebo",[1]; plasma,58%
same,"Clusterin, % change treated vs placebo",[1]; plasma,17%
same,"FUT11, % change treated vs placebo",[1]; plasma,39%
same,"GALT6, % change treated vs placebo",[1]; plasma,33%
same,"GPR116, % change treated vs placebo",[1]; plasma,27%
same,"GXYLT1, % change treated vs placebo",[1]; plasma,82%
same,"HINT1, % change treated vs placebo",[1]; plasma,−131%
same,"HMGB1, % change treated vs placebo",[1]; plasma,−315%
same,"HRG, % change treated vs placebo",[1]; plasma,61%
same,"Hex A, % change treated vs placebo",[1]; plasma,34%
same,"Hex B, % change treated vs placebo",[1]; plasma,36%
same,"LCAT, % change treated vs placebo",[1]; plasma,17%
same,"NRP2, % change treated vs placebo",[1]; plasma,46%
same,"Neprilysin, % change treated vs placebo",[1]; plasma,4717%
same,"PCK2, % change treated vs placebo",[1]; plasma,74%
same,"POMGNT1, % change treated vs placebo",[1]; plasma,41%
same,"PRDX6, % change treated vs placebo",[1]; plasma,−130%
same,"SERPING1, % change treated vs placebo",[1]; plasma,24%
same,"ST3GAL1, % change treated vs placebo",[1]; plasma,31%
same,"SUMO3, % change treated vs placebo",[1]; plasma,−77%
same,"TRIM35, % change treated vs placebo",[1]; plasma,99%
same,"TXN, % change treated vs placebo",[1]; plasma,−98%
same,"WDR81, % change treated vs placebo",[1]; plasma,142%
same,"ACOX1, With CT1812","[1]; plasma, direction of change",↑*
same,"ANXA1, With CT1812","[1]; plasma, direction of change",significantly reduced and ↓*
same,"ANXA2, With CT1812","[1]; plasma, direction of change",↓*
same,"AZGP1, With CT1812","[1]; plasma, direction of change",↑*
same,"B4GALT1, With CT1812","[1]; plasma, direction of change",↑*
same,"C4BPA, With CT1812","[1]; plasma, direction of change",significantly increased and ↑*
same,"CFH, With CT1812","[1]; plasma, direction of change",↑*
same,"Cathepsin S, With CT1812","[1]; plasma, direction of change",significantly increase and ↑*
same,"Clusterin, With CT1812","[1]; plasma, direction of change",increased and ↑
same,"FUT11, With CT1812","[1]; plasma, direction of change",↑*
same,"GALT6, With CT1812","[1]; plasma, direction of change",↑*
same,"GPR116, With CT1812","[1]; plasma, direction of change",↑
same,"GXYLT1, With CT1812","[1]; plasma, direction of change",significantly increased and ↑*
same,"HINT1, With CT1812","[1]; plasma, direction of change",significantly reduced and ↓*
same,"HMGB1, With CT1812","[1]; plasma, direction of change",significantly reduced and ↓*
same,"HRG, With CT1812","[1]; plasma, direction of change",significantly increased and ↑*
same,"Hex A, With CT1812","[1]; plasma, direction of change",significantly increased and ↑*
same,"Hex B, With CT1812","[1]; plasma, direction of change",significantly increased and ↑*
same,"LCAT, With CT1812","[1]; plasma, direction of change",↑
same,"NRP2, With CT1812","[1]; plasma, direction of change",↑*
same,"Neprilysin, With CT1812","[1]; plasma, direction of change",↑*
same,"PCK2, With CT1812","[1]; plasma, direction of change",↑
same,"POMGNT1, With CT1812","[1]; plasma, direction of change",↑*
same,"PRDX6, With CT1812","[1]; plasma, direction of change",↓*
same,"SERPING1, With CT1812","[1]; plasma, direction of change",significantly increased and ↑*
same,"ST3GAL1, With CT1812","[1]; plasma, direction of change",↑*
same,"SUMO3, With CT1812","[1]; plasma, direction of change",↓*
same,"TRIM35, With CT1812","[1]; plasma, direction of change",↑*
same,"TXN, With CT1812","[1]; plasma, direction of change",significantly reduced and ↓*
same,"WDR81, With CT1812","[1]; plasma, direction of change",significantly increased and ↑*
same,"GALT6, With CT1812","[1]; plasma, direction of change, listed as CT-1812",significantly increased
same,"ACOX1, % change baseline treated",[1]; [3],10%
same,"ANXA1, % change baseline treated",[1]; [3],−18%
same,"ANXA2, % change baseline treated",[1]; [3],−20%
same,"AZGP1, % change baseline treated",[1]; [3],5%
same,"B4GALT1, % change baseline treated",[1]; [3],16%
same,"C4BPA, % change baseline treated",[1]; [3],21%
same,"CFH, % change baseline treated",[1]; [3],6%
same,"Cathepsin S, % change baseline treated",[1]; [3],27%
same,"Clusterin, % change baseline treated",[1]; [3],4%
same,"FUT11, % change baseline treated",[1]; [3],18%
same,"GALT6, % change baseline treated",[1]; [3],15%
same,"GPR116, % change baseline treated",[1]; [3],9%
same,"GXYLT1, % change baseline treated",[1]; [3],38%
same,"HINT1, % change baseline treated",[1]; [3],−43%
same,"HMGB1, % change baseline treated",[1]; [3],−67%
same,"HRG, % change baseline treated",[1]; [3],10%
same,"Hex A, % change baseline treated",[1]; [3],13%
same,"Hex B, % change baseline treated",[1]; [3],19%
same,"LCAT, % change baseline treated",[1]; [3],6%
same,"NRP2, % change baseline treated",[1]; [3],10%
same,"Neprilysin, % change baseline treated",[1]; [3],48%
same,"PCK2, % change baseline treated",[1]; [3],76%
same,"POMGNT1, % change baseline treated",[1]; [3],14%
same,"PRDX6, % change baseline treated",[1]; [3],−37%
same,"SERPING1, % change baseline treated",[1]; [3],4%
same,"ST3GAL1, % change baseline treated",[1]; [3],5%
same,"SUMO3, % change baseline treated",[1]; [3],−35%
same,"TRIM35, % change baseline treated",[1]; [3],3%
same,"TXN, % change baseline treated",[1]; [3],−33%
same,"WDR81, % change baseline treated",[1]; [3],33%
same,"GALNT1, GALNT2, GALNT4, and GALNT5 expression",[1]; with treatment,increase with treatment
same,neurogranin reduced,[2]; 90 mg dose group,33%
same,"Neurogranin, With CT1812","[2]; ELISA, direction of change",reduced and decreased and ↓*
same,"Aβ, tau and NFL biomarker levels",[2]; before and after treatment,remain unchanged
same,neurogranin reduced,[2]; pooled CT1812-treated group,17.6%
